Assays:
Format in all cases: cell-based
[1] = tested on: Aβ42 from primary murine cortical neurons; assay: Aβ42 sandwich ELISA, primary murine cortical neurons infected with APP695; details: primary murine cortical neurons infected with APP695, 5 μM, p<0.01, n=6
Method: The cDNA coding for human APP695 is cloned in the Smal site of pSFV-1 as described previously (Simons et al., J. Neurosci. 16:899-908, 1996; Tienari et al., Embo. J. 15:5218-29, 1996). PSFV-1/huAPP695 constructs are linearized,with SpeI and run-off transcription using SP6 polymerase is performed to produce mRNA. The transcribed mix of APP and pSFV-helper are cotransfected into BHK cells by electroporation to yield recombinant SFV (Olkkonen et al., J. Neurosci. Res. 35:445-51, 1993). BHK cells are grown in DMEM/F12 supplemented with 5% fetal calf serum, 2 mM L-glutamine, 100 U/ml penicillin, and […] streptomycin. Twenty-four hours after transfection, the culture supernatant containing infective recombinant SFV is collected. Aliquots are snap-frozen in liquid nitrogen and stored at −70° C. until use. […]
The levels of the longer Aβ42 peptide are quantified in both the conditioned media and cell extracts using a sandwich ELISA test (De Strooper et al., Nature 391:387-90, 1998; Vanderstichele et al., Amyloid. 7:245-58, 2000). […] Finally HRP substrate is added and the colorimetric reaction is quantitated spectrophotometrically using a Victor 2 (Wallac) equipped with a 450 nm filter. […] The Aβ42 concentrations in the samples are finally calculated based on the Aβ42 standards nonlinear regression equation and using Mathematica 4.1 software package (Wolfram Research, Champaign, Ill.). […]

[2] = tested on: Aβtotal from primary murine cortical neurons; assay: Aβtotal immunoprecipitation, primary murine cortical neurons infected with APP695; details: primary murine cortical neurons infected with APP695, below 250 μM (5-50 μM)
Method: The cDNA coding for human APP695 is cloned in the Smal site of pSFV-1 as described previously (Simons et al., J. Neurosci. 16:899-908, 1996; Tienari et al., Embo. J. 15:5218-29, 1996). PSFV-1/huAPP695 constructs are linearized,with SpeI and run-off transcription using SP6 polymerase is performed to produce mRNA. The transcribed mix of APP and pSFV-helper are cotransfected into BHK cells by electroporation to yield recombinant SFV (Olkkonen et al., J. Neurosci. Res. 35:445-51, 1993). BHK cells are grown in DMEM/F12 supplemented with 5% fetal calf serum, 2 mM L-glutamine, 100 U/ml penicillin, and […] streptomycin. Twenty-four hours after transfection, the culture supernatant containing infective recombinant SFV is collected. Aliquots are snap-frozen in liquid nitrogen and stored at −70° C. until use.
All experiments are conducted on murine primary cortical neurons derived from E14 embryos according to established procedures (Annaert et al., J. Cell Biol. 147:277-294, 1999; Cupers et al., J. Cell Biol. 154:731-40, 2001; De Strooper et al., Nature 391:387-90, 1998). […]
Data are expressed as a percent of control and represent the mean±SD with n=6 and statistical significance determined by ANOVA with a Tukey's post hoc test at **p<0.01, ***p<0.001.

[3] = tested on: Aβ42 from human neuroblastoma cells (hDAT; SK-N-MC); assay: Aβ42 ELISA, human neuroblastoma cells transiently transfected with APPsw; details: 200 μM, 24 hours, p<0.001, n=11
Method: (§1) Human neuroblastoma cells (hDAT; SK-N-MC stably overexpression human dopamine transporter) were routinely maintained in DMEM supplemented with sodium pyruvate (1 mM) and 10% fetal bovine serum. […] Subsequently, 48 hours post-transfection the cells were rinsed with PBS and treated with vehicle (0.1% DMSO) or 100-200 μM pirinixic acid in serum free/phenol free DMEM for 24 hours. After the pharmacological treatment, the exposure media was collected and supplemented with 10% sample treatment buffer (40 mM sodium phosphate (pH 7.4), 40 mM triethanolamine, 0.1% Triton X-100, 200 mM NaCl, 2 mM EGTA, 0.1% Sodium azide), and assayed for either Aβ40 or AP42 by a calorimetric ELISA as per the manufacturer's protocol (Biosource International Inc, California). The cells were lysed in 0.1% Triton X-100 in PBS supplemented with 5 μM Propridium Iodide (Molecular probes, Eugene, Oreg.) and incubated at 37° C. for 30 minutes prior to measuring fluorescence. Secreted Aβ40 and Aβ42 levels were standardized against propridium iodide fluorescence as a measure of total cell number. Data are expressed as a percent of control and represent the mean±SD with n=11 and statistical significance determined by ANOVA with a Tukey's post hoc test at ***p<0.001.

[4] = tested on: Aβ40 from human neuroblastoma cells (hDAT; SK-N-MC); assay: Aβ40 ELISA, human neuroblastoma cells transiently transfected with APPsw; details: 200 μM, 24 hours
Method: as §1

Cc1cccc(Nc2cc(Cl)nc(SCC(=O)O)n2)c1C [pirinixic acid]
decrease in Aβ42 [1]: 20% | effect on Aβtotal [2]: no significant effect | decrease in Aβ42 [3]: 40% | effect on Aβ40 [4]: without altering Aβ40

Source: patent US20030191144A1, “Compounds, compositions and methods for modulating beta-amyloid production” (Active Pass Pharmaceuticals, Inc., priority 2001, published 2003)
